Results as given in PMC10043937, “Pyranonaphthoquinones and Naphthoquinones from the Stem Bark of Ventilago harmandiana and Their Anti-HIV-1 Activity” (Journal of Natural Products, 2023).

Row | melting point [°C] | SMILES
1 | 116 to 117 | COc1c(C)c2c(c(O)c1OC)C(=O)[C@@H]1[C@@H](C)O[C@@H](C)C[C@H]1C2=O [Compound 3, (1R,3S,4aR,10aS)-7,8-Dimethoxy-9-hydroxy-1,3,6-trimethyl-3,4,4a,10a-tetrahydro-1H-naphtho[2,3-c]pyran-5,10-dione]
2 | 146 to 147 | COC1=C(OC)C(=O)c2c(cc(C)c(C(C)=O)c2O)C1=O [Compound 6, 7-Acetyl-2,3-dimethoxy-8-hydroxy-6-methylnaphthalene-1,4-dione]
